Data as given in patent US4588722A, “N-(4-piperidinyl) bicyclic condensed 2-imidazolamine derivatives” (priority 1984, dated 1986).
Where a name gives a salt, the structure may show the parent alone.

System: compound 48/80-induced lethality in rats
Assay: Protection of rats from compound 48/80-induced lethality
Type: in vivo, rat (male, inbred Wistar strain)
Details: Rattus norvegicus, 4 h, read-out: Compound 48/80 lethality test in rats-ED50
Excerpt: PROTECTION OF RATS FROM COMPOUND 48/80-INDUCED LETHALITY
Compound 48/80, a mixture of oligomers obtained by condensation of 4-methoxy-N-methylbenzeneethanamine and formaldehyde has been described as a potent histamine releasing agent (Int. Arch. Allergy, 13, 336 (1958)). The protection from compound 48/80-induced lethal circulatory collapse appears to be a simple way of evaluating quantitatively the antihistaminic activity of test compounds. Male rats of an inbred Wistar strain, weighing 240-260 g were used in the experiment. After overnight starvation the rats were transferred to conditioned laboratories (temp.=21±1° C., relative humidity=65±5%). The rats were treated subcutaneously or orally with a test compound or with the solvent (NaCl solution, 0.9%). One hour after treatment there was injected intravenously compound 48/80, freshly dissolved in water, at a dose of 0.5 mg/kg (0.2 ml/100 g of body weight). In control experiments, wherein 250 solvent-treated animals were injected with the standard dose of compound 48/80, not more than 2.8% of the animals survived after 4 hours. Survival after 4 hours is therefore considered to be a safe criterion of a protective effect of drug administration.
Said ED50 -values are the values in mg/kg body weight at which the tested compounds protect 50% of the tested animals against compound 48/80-induced lethality.

Q: Which ED50 does the source give for `N=C(NCCN1CCC(Nc2nc3ccccc3n2Cc2ccc(F)cc2)CC1)N[N+](=O)[O-]` [Compound 23, N-[2-[4-[[1-[(4-fluorophenyl)methyl]-1H-benzimidazol-2-yl]amino]-1-piperidinyl]ethyl]-N'-nitroguanidine] here?
A: The ED50 was 0.08 mg/kg.

Same assay, conditions: Rattus norvegicus; test compound subcutaneously or orally (route of each value not given) 1 hour before compound 48/80 0.5 mg/kg intravenously; dose protecting 50% of animals, survival after 4 hours; read-out: Compound 48/80 lethality test in rats-ED50

Q: For `Fc1ccc(Cn2c(NC3CCN(CCNC(=S)Nc4ccccc4)CC3)nc3ccccc32)cc1` [Compound 40, N-[2-[4-[[1-[(4-fluorophenyl)methyl]-1H-benzimidazol-2-yl]amino]-1-piperidinyl]ethyl]-N'phenylthiourea], which ED50 is on record?
A: Its ED50 is 0.16 mg/kg.

Q: For `Fc1ccc(Cn2c(NC3CCN(Cc4ccc(CSCCNc5ncccn5)o4)CC3)nc3ccccc32)cc1` [Compound 50], which ED50 is on record?
A: Its ED50 is 0.16 mg/kg.

Q: Which ED50 does the source give for `OCc1ccc(CN2CCC(Nc3nc4ccccc4n3Cc3ccc(F)cc3)CC2)o1` [Compound 47, 5-[[4-[[1-[(4-fluorophenyl)methyl]-1H-benzimdazol-2-yl]amino]-1-piperidinyl]methyl]-2-furanmethanol] here?
A: The ED50 was 0.08 mg/kg.

Q: How did the ED50 turn out when `CCN(CC)C(=S)NCCN1CCC(Nc2nc3ccccc3n2Cc2ccc(F)cc2)CC1` [Compound 32, N,N-diethyl-N'-[2-[4-[[1-[(4-fluorophenyl)methyl]-1H-benzimidazol-2-yl]-amino]-1-piperidinyl]ethyl]thiourea] was run?
A: Its ED50 is 0.16 mg/kg.

Q: Which ED50 does the source give for `O=c1oc2ccccc2cc1CCN1CCC(Nc2nc3ccccc3n2Cc2cccs2)CC1` [Compound 8, 3-[2-[4-[[1-(2-thienylmethyl)-1H-benzimidazol-2-yl]amino]-1-piperidinyl]ethyl]-2H-1-benzopyran-2-one] here?
A: The ED50 was 0.16 mg/kg.

Q: With `CN(C)C(=NC#N)NCCN1CCC(Nc2nc3ccccc3n2Cc2ccc(F)cc2)CC1` [Compound 25] as the compound, how does the ED50 read?
A: Its ED50 is 0.08 mg/kg.

Q: Which ED50 does the source give for `CN(C)C(=S)NCCN1CCC(Nc2nc3ccccc3n2Cc2ccc(F)cc2)CC1` [Compound 31] here?
A: Its ED50 is 0.08 mg/kg.

Q: `O.O=c1oc2ccccc2cc1CCN1CCC(Nc2nc3cccnc3n2Cc2ccc(F)cc2)CC1` [Compound 16, 3-[2-[4-[[3-[(4-fluorophenyl)methyl]-3H-imidazo [4,5-b]pyridin-2-yl]-amino]-1-piperidinyl]ethyl]-2H-1-benzopyran-2-one monohydrate] was tested. Which ED50 did it give?
A: The ED50 was 0.04 mg/kg.

Q: How did the ED50 turn out when `COc1ccc(CCN2CCC(Nc3nc4ccccc4n3Cc3cscn3)CC2)cc1` [Compound 17, N-[1-[2-(4-methoxyphenyl)ethyl]-4-piperidinyl]-1-(4-thiazolyl)-methyl)-1H-benzimidazol-2-amine dihydrobromide. dihydrate] was run?
A: Its ED50 is 0.08 mg/kg.

Q: Which ED50 does the source give for `CSC(=NC#N)NCCN1CCC(Nc2nc3cccnc3n2Cc2ccc(F)cc2)CC1` [Compound 21, S-methyl N'-cyano-N-[2-[4-[[3-[(4-fluorophenyl)methyl]-3H-imidazo[4,5-b]pyridin-2-yl]amino]-1-piperidinyl]ethyl]carbamimidothioate] here?
A: Its ED50 is 0.16 mg/kg.

Q: Which ED50 does the source give for `Br.Br.Oc1ccc(CCN2CCC(Nc3nc4ccccc4n3Cc3cscn3)CC2)cc1` [Compound 59, 4-[2-[4-[[1-(4-thiazolylmethyl)-1H-benzimidazol-2-yl]amino]-1-piperidinyl]ethyl]phenol dihydrobromide] here?
A: Its ED50 is 0.08 mg/kg.

Q: Which ED50 does the source give for `COc1ccc(CCN2CCC(Nc3nc4ccccc4n3Cc3cnccn3)CC2)cc1` [Compound 13, N-[1-[2:(4-methoxyphenyl)ethyl]-4-piperidinyl]-1-[(2-pyrazinyl)methyl]-1H-benzimidazol-2-amine] here?
A: The ED50 was 0.04 mg/kg.

Q: With `O.O=c1oc2ccccc2cc1CCN1CCC(Nc2nc3ccccc3n2Cc2cccnc2)CC1` [Compound 10, 3-[2-[4-[[1-(3-pyridinylmethyl)-1H-benzimidazol-2-yl]amino]-1-piperidinyl]ethyl]-2H-1-benzopyran-2-one monohydrate] as the compound, how does the ED50 read?
A: Its ED50 is 0.31 mg/kg.

Q: Which ED50 does the source give for `COc1ccc(CCN2CCC(Nc3nc4cnccc4n3Cc3ccc(F)cc3)CC2)cc1` [Compound 3, 1-[(4-fluorophenyl)methyl]-N-[1-[2-(4-methoxyphenyl)ethyl]-4-piperidinyl]-1H-imidazo[4,5-c]pyridin-2-amine] here?
A: The ED50 was 0.16 mg/kg.

Q: How did the ED50 turn out when `CS(=O)(=O)Nc1ccc(CCN2CCC(Nc3nc4ccccc4n3Cc3ccc(F)cc3)CC2)cc1` [Compound 53, N-4-[2-[4-[[1-[(4-fluorophenyl)methyl]-1H-benzimidazol-2-yl]amino]-1-piperidinyl]ethyl] methanesulfonamide monohydrate] was run?
A: The ED50 was 0.16 mg/kg.

Q: How did the ED50 turn out when `O=c1cc[nH]c(=O)n1CCN1CCC(Nc2nc3ccccc3n2Cc2ccc(F)cc2)CC1` [Compound 5, 3-[2-[4-[[1-[(4-fluorophenyl)methyl]-1H-benzimidazol-2-yl]amino]-1-piperidinyl]ethyl]-2,4-(1H,3H)-pyrimidinedione] was run?
A: Its ED50 is 0.08 mg/kg.

Q: How did the ED50 turn out when `NC(=O)Nc1ccc(CCN2CCC(Nc3nc4ccccc4n3Cc3ccc(F)cc3)CC2)cc1` [Compound 56] was run?
A: The ED50 was 0.04 mg/kg.

Q: How did the ED50 turn out when `O=c1oc2ccccc2cc1CCN1CCC(Nc2nc3cccnc3n2Cc2ccccn2)CC1` [Compound 7, 3-[2-[4-[[3-(2-pyridinylmethyl)-3H-imidazo[4,5-b]pyridin-2-yl]amino]-1-piperidinyl]ethyl]-2H-1benzopyran-2-one trihydrochloride.dihydrate] was run?
A: The ED50 was 0.04 mg/kg.

Q: Which ED50 does the source give for `O=c1oc2ccccc2cc1CCN1CCC(Nc2nc3cccnc3n2Cc2ccco2)CC1` [Compound 15, 3-[2-[4-[[3-(2-furanylmethyl)-3H-imidazo[4,5-b]pyridin-2-yl]amino]-1-piperidinyl]ethyl]-2H-1-benzopyran-2-one] here?
A: Its ED50 is 0.01 mg/kg.

Q: With `CCOC(=S)NCCN1CCC(Nc2nc3ccccc3n2Cc2ccc(F)cc2)CC1` [Compound 35, ethyl [2-[4-[[1-[(4-fluorophenyl)-methyl]-1H-benzimidazol-2-yl]amino]-1-piperidinyl]ethyl]carbamothioate] as the compound, how does the ED50 read?
A: The ED50 was 0.16 mg/kg.

Q: How did the ED50 turn out when `O=CNCCN1CCC(Nc2nc3ccccc3n2Cc2ccc(F)cc2)CC1` [Compound 45, N-[2-[4-[[1-[(4-fluorophenyl)methyl]-1H-benzimidazol-2-yl]amino]-1-piperidinyl]ethyl]formamide] was run?
A: Its ED50 is 0.08 mg/kg.

Q: How did the ED50 turn out when `COC(CNC(=NC#N)NCCN1CCC(Nc2nc3ccccc3n2Cc2ccc(F)cc2)CC1)OC.O=C(O)/C=C/C(=O)O.O=C(O)/C=C/C(=O)O` [Compound 24, N"-cyano-N-(2,2-dimethoxyethyl)-N'-[2-[4-[[1-[(4-fluorophenyl)methyl]-1H-benzimidazol-2-yl]amino]-1-piperidinyl]ethyl]guanidine (E)-2-butenedioate(1:2)] was run?
A: Its ED50 is 0.16 mg/kg.

Q: `O=CNCCN1CCC(Nc2nc3ccccc3n2Cc2ccco2)CC1` [Compound 46, N-[2-[4-[[1-(2-furanylmethyl)-1H-benzimidazol-2-yl]amino]-1-piperidinyl]ethyl]formamide hemihydrate] was tested. Which ED50 did it give?
A: Its ED50 is 0.16 mg/kg.

Q: `O=c1oc2ccccc2cc1CCN1CCC(Nc2nc3ccccc3n2Cc2cscn2)CC1` [Compound 6, 3-[2-[4-[[1-(4-thiazolylmethyl)-1H-benzimidazol-2-yl]amino]-1-piperidinyl]ethyl]-2H-1-benzopyran-2-one dihydrochloride.sesquihydrate] was tested. Which ED50 did it give?
A: The ED50 was 0.16 mg/kg.

Q: With `CCN(C(C)=O)c1ccccc1C(=O)NCCN1CCC(Nc2nc3ccccc3n2Cc2ccc(F)cc2)CC1` [Compound 52, 2-(acetylethylamino)-N-[2-[4-[[(1-[(4-fluorophenyl)methyl]-1H-benzimidazol-2yl]amino]-1-piperidinyl]ethyl]benzamide (E) -2-butenedioate(1:2)] as the compound, how does the ED50 read?
A: Its ED50 is 0.31 mg/kg.

Q: How did the ED50 turn out when `CNC(=O)Nc1ccc(CCN2CCC(Nc3nc4ccccc4n3Cc3ccc(F)cc3)CC2)cc1` [Compound 57, N-[4-[2-[4-[[1-[(4-fluorophenyl)methyl]-1H-benzimidazol-2-yl]amino]-1-piperidinyl]ethyl]phenyl]-N'methylurea] was run?
A: The ED50 was 0.08 mg/kg.

Q: For `NNC(=S)NCCN1CCC(Nc2nc3ccccc3n2Cc2ccc(F)cc2)CC1.O` [Compound 34, N-[2-[4-[[1-[(4-fluorophenyl)methyl]-1H-benzimidazol-2-yl]amino]-1-piperidinyl]ethyl]hydrazinecarbothioamide monohydrate], which ED50 is on record?
A: The ED50 was 0.02 mg/kg.

Q: With `CNC(=O)N1CCC(N2CCC(Nc3nc4ccccc4n3Cc3ccc(F)cc3)CC2)CC1` [Compound 36, 4-[[1-(4-fluorophenyl)methyl]-1H-benzimidazol-2-ylamino]-N-methyl-[1,4'-bipiperidine]-1'-carboxamide monohydrate] as the compound, how does the ED50 read?
A: The ED50 was 0.16 mg/kg.

Q: `Fc1ccc(Cn2c(NC3CCN(CCNC(=S)N4CCOCC4)CC3)nc3ccccc32)cc1` [Compound 28, N-[2-[4-[[1-[(4-fluorophenyl)methyl]-1H-benzimidazol-2-yl]amino]-1-piperidinyl]ethyl]-4-morpholinecarbothioamide] was tested. Which ED50 did it give?
A: The ED50 was 0.16 mg/kg.

Q: How did the ED50 turn out when `CNC(=S)N1CCCC(N2CCC(Nc3nc4ccccc4n3Cc3ccc(F)cc3)CC2)C1` (stereo not drawn) [Compound 37, 4-[[1-[(4-fluorophenyl)methyl]-1H-benzimidazol-2-yl]amino]-N-methyl-[1,3'-bipiperidine]-1'-carbothioamide] was run?
A: Its ED50 is 0.08 mg/kg.

Q: `C=COCCN1CCC(Nc2nc3ccccc3n2Cc2ccc(F)cc2)CC1` [Compound 1, N-[1-[2-(ethenyloxy)ethyl]-4-piperidinyl]-1-(4-fluorophenylmethyl)-1H-benzimidazol-2-amine] was tested. Which ED50 did it give?
A: The ED50 was 0.08 mg/kg.

Q: For `O.OCCCNC(=S)NCCN1CCC(Nc2nc3ccccc3n2Cc2ccc(F)cc2)CC1` [Compound 30, N-[2-[4-[[1-[(4-fluorophenyl)methyl]-1H-benzimidazol-2-yl]amino]-1-piperidinyl]ethyl]-N'(3-hydroxypropyl)thiourea monohydrate], which ED50 is on record?
A: Its ED50 is 0.08 mg/kg.
